One series relates to nuclei of H460 cells. In words: Fluorescence microscopy of labeled H460 cells. It is filed as cell-based. Particulars: 0.4 μM, 5 h at 37 °C, co-stain TO-PRO-3. On the procedure: Fluorescence images of nuclei of H460 cells labeled with DC-45-A2 [4.0 μM] or dideoxy-DC-45-A2 [0.4 μM] for 5 h at 37° C. is provided in FIG. 15. […] The scale bar represents 10 μm.
Experimental Details for Fluorescence Microscopy: H460 cells were grown on 22 mm glass coverslips and allowed to attach for 24 h. Subconfluent H460 cells (50-60% confluency) were treated with drugs of desired concentration and incubated at 37° C. for 5 h. The coverslips were washed three times with warm PBS. The cells were then fixed with 4% paraformaldehyde in PBS at 23° C. for 15 min. At 23° C., the cells were permeablized with 0.1% Triton-X100 in PBS for 15 min and blocked with 5% BSA for 40 min. After two washes with PBS, the cells were incubated with 0.2 µM TO-PRO-3 (Invitrogen) in PBS at 23° C. for 15 min. The coverslips were washed three times with PBS and mounted with Mowiol on microscope slides. Fluorescent images were captured on an Olympus IX71 inverted microscope equipped with a 60× water-immersion objective, a Nikon Intensilight Illuminator, and an Andor iXon EMCCD camera. Imaging data of DC-45-A2 and dideoxy DC-45-A2 were collected with a 387/11 nm excitation filter and a 510/84 nm emission filter purchased from Semrock. TO-PRO-3 dye was imaged using Cy5 channels. The images were complied and colorized using ImageJ software.

Series [1] is described as follows: Storage and solution stability.

Take Dideoxy-DC-45-A2: in the series on nuclei of H460 cells, the localization in cells result is on record as “co-localizes with nuclear DNA”.

Take DC-45-A2: the stability in solution entry in series [1] (in solution at 23 °C) is reported as “slow decomposition over hours”. For the same substance, in series [1] (stored neat at −25 °C with exclusion of light), the stability on storage result was “stable”.
